Test results as given in patent publication US12527814B2, “Treatment of an ocular infection, composition and methods thereof” (priority 2019, dated 2026).
Like-named read-outs stand apart in the source and are kept apart here.

Experiments:
T. pulmonis-PW1004 [1] = assay: Treatment of experimental Tsukamurella keratitis in rabbits
Experimental: 6.4.4 Development of a rabbit model for Tsukamurella keratitis. Bacterial suspensions used to infect rabbits were prepared by culturing T. pulmonis-PW1004 in BHI for 48 h. Eight male NZW rabbits, 1.5-2.0 kg, were inoculated intrastromally as described previously^37. Corneas of 4 rabbits were injected with approximately 10 μl (i.e., 10^6 CFU) of T. pulmonis-PW1004 using a microliter syringe with a 30 G needle. Another 4 rabbit corneas were challenged with plain culture medium as the control. Rabbits were monitored daily for signs of disease. At 24 h PI, rabbit eyes were photographed, evaluated for pathology, and sacrificed. After euthanasia, the corneas of each rabbit were surgically removed for histopathological and immunohistochemical analyses and bacterial enumeration.
6.4.5 Treatment of experimental Tsukamurella keratitis. Efficacy of the two antibiotics, topical 0.5% Cravit® levofloxacin (Santen Pharmaceutical Company, Japan) and 0.02% PHMB (Lonza, Switzerland), for the treatment of Tsukamurella keratitis were evaluated, respectively. Tsukamurella keratitis was first established in 12 NZW rabbits (n=4 per group) using procedures as described above. Infection was allowed to proceed for 24 h before initiation of antibiotic therapy. These 12 NZW rabbits were divided into 3 topical treatment groups: (1) 0.5% levofloxacin, (2) 0.02% PHMB, and (3) saline. Treatment regimens of levofloxacin and PHMB were performed according to Fiscella et al. and Kowalski et al., respectively, with slight modifications^16,17. For the first group of rabbits treated with levofloxacin (n=4), drops (50 μl) of levofloxacin were applied to the affected eyes hourly for 10 doses over 3 days. For the second group of rabbits treated with PHMB (n=4), drops (50 μl) of PHMB were applied to the affected eyes hourly for 8 doses over 3 days. Rabbits in the third control group (n=4) received the same regimen of sterile saline (0.85% NaCl) hourly for 10 doses over 3 days. In addition to these 3 treatment groups, two extra NZW rabbits without infection were used as controls (i.e., mock-infected and mock-treated rabbits), receiving the same regimen of saline for 3 days. One hour after the final instillation of the antibiotics and saline drops, rabbit eyes were photographed, evaluated for pathology, and sacrificed. The treatment efficacy was compared and evaluated by the quantitative culture and histopathological analysis of the infected corneas.
6.4.6 Quantification of Tsukamurella cells. To quantify the number of viable Tsukamurella in the cornea, the cornea harvested from each rabbit was cut into smaller pieces using a sterile scalpel. The corneal pieces were placed into a sterile tube containing 500 μl of PBS (pH 7.2). Each tissue was homogenized, and homogenates were serially diluted 10-fold in PBS (pH 7.2). One hundred microliters of each diluted sample was plated in triplicate on the BHI agar and incubated at 37° C. under aerobic conditions for 48 h. The number of bacteria was determined and expressed as CFU/cornea.
To examine the histopathology of corneal tissues of rabbits challenged with the PW1004-WT and its derivative mutants, excised infected eyes, including the cornea of challenged rabbits, were subjected to histopathological examination. Corneal tissues harvested from the rabbits were fixed in 10% neutral-buffered formalin, embedded in paraffin, and stained with hematoxylin and eosin (H&E) according to Fischer et al.^39.

T. pulmonis-PW1004 [2] = conditions: for Zone of inhibition: 6 mm disk, 48 h, 37° C.
Source text: Disk diffusion assay was initially used to determine the susceptibility of T. pulmonis-PW1004 against various concentrations of PHMB. Briefly, standard paper disks, 6 mm in diameter, impregnated with different dilutions of PHMB (0.0005%, 0.001%, 0.0025%, 0.005%) were placed onto BHI agar plates inoculated with overnight culture of a 0.5 McFarland standard prepared from T. pulmonis-PW1004, following standard procedures^15. Paper disks soaked in 0.85% NaCl were used as the control. Zones of inhibition were measured after 48 h of incubation at 37° C. under aerobic conditions. […] Next, we re-examined the susceptibility of the 4 contact lens solutions against the 7 Tsukamurella species by adjusting the final concentration of PHMB to 0.0025%, following the procedures as described in the previous paragraph.

T. tyrosinosolvens-PW899 = test system: T. tyrosinosolvens-PW899
Experimental: (§1) 6.4.9 In vitro susceptibility of planktonic cultures of Tsukamurella against contact lens and PHMB solutions. A susceptibility test was performed following the procedures as described in FDA/ISO14729 stand-alone procedure for disinfecting products^13. Briefly, 0.1 ml of 1×10^8 CFUs/ml bacterial suspension from 7 different Tsukamurella species was added into 10 ml each of the 4 commercial contact lens solutions, respectively, and the mixture was incubated at room temperature according to the manufacturer's recommended disinfection time (Table 1). After incubation, a 1-ml aliquot was withdrawn from each mixture and added to 9 ml of Dey-Engley neutralizing broth (Sigma, USA) for 15 min at room temperature for neutralization of the preservative. The mixture was then serially diluted, and 100 μl of each diluted sample was plated in triplicate on the BHI agar for sampling of viable bacteria. P. aeruginosa ATCC27853 was used as a control. The mean logarithmic reduction was calculated. According to the guideline, only a contact lens solution capable of reducing the viability of starting concentration of bacteria by 3-log is defined as satisfactory. All experiments were performed in triplicate and repeated 3 times along with the control strain.

T. pulmonis-PW1004 [3] = test system: T. pulmonis-PW1004
Experimental: as §1

Tsukamurella = conditions: literature refs 3, 12; cited from earlier work
[4] = PHMB 0.005% compared with 0.0025%
[5] = 0.02% PHMB topical for 3 days, compared to saline control rabbits

In the case of `C[C@H]1COc2c(N3CCN(C)CC3)c(F)cc3c(=O)c(C(=O)O)cn1c23` [levofloxacin], the “corneal perforation and adverse signs” value (T. pulmonis-PW1004 [1]; rabbit, in vivo) is reported as “corneal perforations with severe discharges accompanied by behavioral abnormalities”.
polyhexamethylene biguanide [PHMB] gave a Zone of inhibition (T. pulmonis-PW1004 [2]; PHMB concentration 0.0005%) of 0 mm, a Zone of inhibition (T. pulmonis-PW1004 [2]; PHMB concentration 0.001%) of 0 mm and a Zone of inhibition (T. pulmonis-PW1004 [2]; PHMB concentration 0.0025%) of 13 mm. For the same compound, the Zone of inhibition (T. pulmonis-PW1004 [2]; PHMB concentration 0.005%) was 14 mm, the “minimal concentration that achieved good efficacy” value (T. pulmonis-PW1004 [2]; disk diffusion, preliminary results) was 0.0025% and the log reduction (T. tyrosinosolvens-PW899; PHMB 0.0005%) was under 3 log. The log reduction (T. tyrosinosolvens-PW899; PHMB 0.001%) was under 3 log, the log reduction (T. tyrosinosolvens-PW899; PHMB 0.0025%) was 3 log and the “further reduction of bacterial numbers” value (T. tyrosinosolvens-PW899; [4]) was “could not be further reduced”. For the same compound, the log reduction (T. pulmonis-PW1004 [3]; PHMB 0.0005%) was under 3 log, the log reduction (T. pulmonis-PW1004 [3]; PHMB 0.001%) was under 3 log and the log reduction (T. pulmonis-PW1004 [3]; PHMB 0.0025%) was 3 log. The “further reduction of bacterial numbers” value (T. pulmonis-PW1004 [3]; [4]) was “could not be further reduced”, the “PMN infiltration in corneal stroma and epithelium” value (T. pulmonis-PW1004 [1]; [5]) was “less evident” and the “histological examination: stromal edema and capillary formation” value (T. pulmonis-PW1004 [1]; [5]) was “lower degree of stromal edema as well as capillary formation”. The “keratitis symptoms, gross appearance” value (T. pulmonis-PW1004 [1]; [5]) was “keratitis symptoms became less severe”, the “number of bacteria recovered from the cornea” value (T. pulmonis-PW1004 [1]; 0.02% PHMB topical, hourly 8 doses over 3 days, started 24 h PI, P<0.01 vs saline) was 1.05±0.07 log and the corneal perforation (T. pulmonis-PW1004 [1]; 0.02% PHMB topical, whole course of treatment) was “did not observe corneal perforation”. The “toxicity in rabbit corneal tissues” value (T. pulmonis-PW1004 [1]; PHMB 0.02% topical) was “no toxicity”.
In the case of `O=C(N[C@H](CO)[C@H](O)c1ccc([N+](=O)[O-])cc1)C(Cl)Cl` [chloramphenicol], the “susceptibility of Tsukamurella to topical antibiotic eye drops” value (Tsukamurella) is given as “generally resistant”.
